Values of other authors as cited in US20150064117A1, “NOVEL POLYMORPHS OF REBAUDIOSIDE C AND METHODS FOR MAKING AND USING THE SAME” (Redpoint Bio Corporation, priority 2009, published 2015).
Like-named read-outs stand apart in the source and are kept apart here.

How the values were obtained:
[1] = relative to sucrose

| Compound | times sweeter than sucrose [1] [times] | effect in mixture (presence and degree of synergism) (mixture with fructose, intensity equivalent to 3% (w/v-%) sucrose) | effect in mixture (presence and degree of synergism) (mixture with fructose, intensity equivalent to 5% (w/v-%) sucrose) | effect in mixture (presence and degree of synergism) (mixture with fructose, intensity equivalent to 7% (w/v-%) sucrose) | effect in mixture (presence and degree of synergism) (mixture with glucose, intensity equivalent to 3% (w/v-%) sucrose) | effect in mixture (presence and degree of synergism) (mixture with glucose, intensity equivalent to 5% (w/v-%) sucrose) | effect in mixture (presence and degree of synergism) (mixture with glucose, intensity equivalent to 7% (w/v-%) sucrose) | effect in mixture (presence and degree of synergism) (mixture with sucrose, intensity equivalent to 3% (w/v-%) sucrose) | effect in mixture (presence and degree of synergism) (mixture with sucrose, intensity equivalent to 5% (w/v-%) sucrose) | effect in mixture (presence and degree of synergism) (mixture with sucrose, intensity equivalent to 7% (w/v-%) sucrose) |
| --- | --- | --- | --- | --- | --- | --- | --- | --- | --- | --- |
| C=C1C[C@@]23CC[C@H]4[C@@](C)(CCC[C@@]4(C)C(=O)O[C@@H]4O[C@H](CO)[C@@H](O)[C@H](O)[C@H]4O)[C@@H]2CC[C@]1(O[C@@H]1O[C@H](CO)[C@@H](O)[C@H](O)[C@H]1O[C@@H]1O[C@@H](C)[C@H](O)[C@@H](O)[C@H]1O)C3 [dulcoside A] | 30 |  |  |  |  |  |  |  |  |  |
| C=C1C[C@@]23CC[C@H]4[C@@](C)(CCC[C@@]4(C)C(=O)O[C@@H]4O[C@H](CO)[C@@H](O)[C@H](O)[C@H]4O)[C@@H]2CC[C@]1(O[C@@H]1O[C@H](CO)[C@@H](O)[C@H](O[C@@H]2O[C@H](CO)[C@@H](O)[C@H](O)[C@H]2O)[C@H]1O[C@@H]1O[C@H](CO)[C@@H](O)[C@H](O)[C@H]1O)C3 [rebaudioside A] |  | additive | additive | suppressive | additive | additive | suppressive | synergistic | additive | additive |
| Rebaudioside C | ≥ 40 |  |  |  |  |  |  |  |  |  |
